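The compound was tested at five concentrations on cells cultured in 96-well plates, with a 48-hour exposure period. Abbreviation: GI50, concentration required for 50% inhibition of growth. TGI: concentration producing complete growth inhibition.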
Assays:
Assay in all cases: NCI tumour cell line growth inhibition, 48 h
786-0 renal = tested on: 786-0 renal
SK-MEL-2 melanoma = tested on: SK-MEL-2 melanoma
NCI-H460 lung = tested on: NCI-H460 lung
OVCAR-8 ovarian = tested on: OVCAR-8 ovarian
CCRF-CEM leukemia = tested on: CCRF-CEM leukemia
RXF 393 renal = tested on: RXF 393 renal
SR leukemia = tested on: SR leukemia
SF-268 CNS = tested on: SF-268 CNS
NCI-H23 lung = tested on: NCI-H23 lung
SNB-19 CNS = tested on: SNB-19 CNS

| Compound | GI50 (786-0 renal) | TGI (786-0 renal) | GI50 (SK-MEL-2 melanoma) | TGI (SK-MEL-2 melanoma) | GI50 (NCI-H460 lung) | TGI (NCI-H460 lung) | GI50 (OVCAR-8 ovarian) | TGI (OVCAR-8 ovarian) | GI50 (CCRF-CEM leukemia) | TGI (CCRF-CEM leukemia) | GI50 (RXF 393 renal) | TGI (RXF 393 renal) | GI50 (SR leukemia) | TGI (SR leukemia) | GI50 (SF-268 CNS) | TGI (SF-268 CNS) | GI50 (NCI-H23 lung) | TGI (NCI-H23 lung) | GI50 (SNB-19 CNS) | TGI (SNB-19 CNS) |
| --- | --- | --- | --- | --- | --- | --- | --- | --- | --- | --- | --- | --- | --- | --- | --- | --- | --- | --- | --- | --- |
| N#Cc1nc2cc(F)c(F)cc2nc1-c1ccc(Cl)cc1 | 16.3 µM | 43.9 µM | 8.41 µM | 25.5 µM | 57.5 µM | > 100 µM | 2.09 µM | 4.76 µM | 0.181 µM | 3.12 µM | 6.23 µM | 18.3 µM | 1.7 µM | 4.35 µM | 8.07 µM | 30.2 µM | 7.92 µM | 33.9 µM | 14.5 µM | > 85.9 µM |
| CCCCCCCCCCCC[n+]1ccc(C(N)=O)cc1 | 3.33 µM | 12.7 µM | 3.51 µM | 9.13 µM | 3.81 µM | 14.1 µM | 3.34 µM | 13.1 µM | 3.61 µM | > 100 µM | 1.74 µM | 5.46 µM | 4.67 µM | > 100 µM | 2.78 µM | 11.5 µM | 2.81 µM | 14 µM | 1.82 µM | 4.34 µM |
| N#CN1CCC=C(c2cc3ccccc3[nH]2)C1 |  | > 448 µM |  | > 448 µM |  | > 448 µM |  | > 448 µM |  | > 448 µM |  | > 448 µM |  | > 448 µM |  | > 448 µM |  | > 448 µM |  | > 448 µM |
| CS(=O)(=O)Nc1cc(-c2ccc3ncnc(Nc4ccc5c(cnn5Cc5ccccc5F)c4)c3c2)cnc1Cl | 1.84 µM | > 100 µM | 1.52 µM | 4.65 µM | 2.1 µM | 58 µM | 2.72 µM | > 100 µM | 0.634 µM | > 31.2 µM | 1.41 µM | 5.85 µM | 3.86 µM | > 100 µM | 1.31 µM | 9.18 µM | 2.81 µM | > 100 µM | 1.77 µM | > 55.5 µM |
| CCOC1C=CCCO1 (stereo not given) |  | > 100 µM |  | > 100 µM |  | > 100 µM |  | > 100 µM |  | > 100 µM |  | > 100 µM |  | > 100 µM |  | > 100 µM |  | > 100 µM |  | > 100 µM |
| NCCCCN(Cc1nc2ccccc2[nH]1)[C@H]1CCCc2cccnc21 | 21.2 µM | > 77.1 µM | 16.7 µM | 45.1 µM | 7.47 µM | > 100 µM | 20 µM | > 100 µM | 7.06 µM | 56.3 µM | 13.5 µM | 66.8 µM | 4.52 µM | 24.8 µM | 9.71 µM | 97.3 µM | 20.4 µM | > 100 µM | 26.9 µM | > 100 µM |
| COc1cc(/C=C2/C(=O)NC(Cc3cc(OC)c(OC)c(C)c3OC)C(=O)N2Cc2ccccc2)c(OC)c(C)c1OC (stereo not given) |  | > 100 µM |  | 66.8 µM |  | > 100 µM |  | > 100 µM |  | > 100 µM |  | > 100 µM |  | 54.1 µM |  | > 100 µM |  | > 100 µM |  | > 100 µM |
